Assay results from paper PMC6560211, “ApoAI-derived peptide increases glucose tolerance and prevents formation of atherosclerosis in mice” (Diabetologia, 2019).
No end group written: not given here.

Legend:
[1] = system: Akt and AMPK signalling; assay: Tissue signalling by western blotting; type: in vivo, mouse; conditions: soleus muscle, heart muscle and adipose depots in lean mice; 12 mg/kg i.p., 2.5 h; n=4
Experimental: Soleus, heart and fat samples were collected from male C57BL/6NTac mice (Taconic, Ejby, Denmark) after 12 h fasting at 9 weeks of age. The effect of RG54 on Akt and AMPK signalling in vivo was then measured by western blot using the following antibodies (all sourced from Cell Signaling Technology/Bionordika, Stockholm, Sweden): pAKT (#4060, 1:2000), Akt (#4691, 1:1000), pAMPK (#2535, 1:1000), AMPK (#2603, 1:1000) and GAPDH (#D16H11, 1:1000). All antibodies were diluted in Tris-buffered saline (154 mmol/l NaCl) with Tween-20 containing 1% BSA and were validated by the manufacturer. See ESM Methods for more details.
In vitro: glucose uptake measurements
C2C12 […] myoblasts (ATCC #CRL-1772) were grown in DMEM (ATCC) supplemented with 10% FBS (Sigma) and 1% Penicillin, Streptomycin and Amphotericin B (Invitrogen) and maintained at 37°C and 5% CO2. Differentiation to myotubes was achieved by switching from growth media to 2% FBS DMEM for 7 days. […]
No statistical methods were used to predetermine sample sizes, but sample sizes are similar to those reported in the field. […] Group allocation was blinded for all mouse work when possible (such as collection of blood or tissues, sample quantification and analysis, and atherosclerosis scoring). […]
protein concentrations were analysed with Bradford protein assay. […]

[2] = Peptide solubility by HPLC; type: physicochemical; conditions: reconstituted RG54 peptide; assayed using HPLC
Experimental: Peptide (lyophilised powder) produced by Red Glead (Lund, Sweden) was reconstituted in Milli-Q water and then either used directly or mixed in a 1:1 ratio with 6 mol/l guanidine HCl in 2× PBS to give a monodisperse solution, followed by desalting using a column equilibrated with PBS, pH 7.4, using ÄKTAxpress fast protein LC (GE Healthcare, Uppsala, Sweden). Peptide integrity was analysed using circular dichroism spectroscopy. Peptide solubility was assayed at Red Glead using HPLC. Peptide stability in physiologic buffer or blood plasma (human or mouse) over 2 h was assayed at the Science for Life Laboratory (Uppsala, Sweden). For detailed methods, please refer to the electronic supplementary material (ESM) Methods.
The peptide RG54 was synthesised with natural amino acids and then modified with an acetylation cap on the N-terminus in order to reduce the susceptibility for proteolytic degradation by […] (ESM Fig. 3a). […] Peptide integrity following the denaturation/refolding procedure was confirmed using gel electrophoresis and circular dichroism spectroscopy analyses (ESM Fig. 3d,e) and by peptide stability assays (buffer or plasma) (ESM Fig. 3f).

## Ac-AEYHAKATEHLSTLSEKAKPALEDLRQGLLPVLESFKVSFLSALEEYTKKLNTQ [RG54]
[1]
  AMPK and Akt phosphorylation: minor to no changes
[2]
  solubility: > 3000 µg/mL
